# Reference: patent US6087401A, “Cyclopentenones, process for preparing the same, and the use thereof” (Takara Shuzo Co., Ltd., priority 1996, dated 2000)
# Where two headings read alike, the source gives them in different places.
# Legend:
# [1] = test system: Bacillus subtilis (IFO 3034); experiment: growth turbidity, microorganism (17); format: cell-based; conditions: 8 h, control 267
# Source text: (§1) They were testing microorganism (13): Escherichia coli HB101 (ATCC 33694); testing microorganism (14): Salmonella typhimurium LT-2 (ATCC 27106); testing microorganism (15): Pseudomonas aeruginosa (IFO 3080); testing microorganism (16): Staphylococcus aureus 3A (NCTC 8319); testing microorganism (17): Bacillus subtilis (IFO 3034); and testing microorganism (18): Streptococcus mutans (GS5; stored at National Institute of Health).
# (§2) The testing microorganisms were subjected to a seed culture overnight in an L-broth (1% tryptone, 0.5% yeast extract and […]; pH 7.0). The seed culture (5 μl) was inoculated to a medium to which 25-200 μg/ml of cyclopentenone was added to 5 ml of L-both and also to a medium to which nothing was added and a shake incubation was conducted at 37° C. to measure the growth. At the initiation of the incubation and also at eight hours thereafter, turbidity of the culture was measured using a Fuji Digital Turbidimeter (sold from Fuji Kogyo KK; manufactured by Akiyama Denki Seisakusho) under the condition that the adjusted scale was 82.3 and the growth of the tested microorganism was measured from the value (growth turbidity) obtained by deducting the turbidity at the initiation of incubation from that after eight hours. Incidentally, in the case of the testing microorganism (18), a brain heart infusion was used instead of L-broth.
# [2] = test system: Aspergillus fumigatus TIMM 1776; experiment: antimicrobial activity to fungi; format: cell-based; conditions: high concentrations
# HL-60 cells [3] = experiment: apoptosis-inducing activity to HL-60 cells; format: cell-based, human; conditions: Homo sapiens
# Method: (2) The cyclopentenone prepared in Example 2-(1) was used for preparing aqueous solutions of the cyclopentenone in the concentrations of 2.86 mM, 955 μM, 318 μM, 106 μM, 35 μM, 12 μM and […]. Then said heat-treated substance was adjusted to pH 7.0 with NaOH and the apoptosis-inducing activity to HL-60 cells was measured as follows.
# To 1.35 ml of this suspension was added 0.15 ml of the above-mentioned cyclopentenone solution and the mixture was incubated at […] for 20 hours in the presence of 5% of carbon dioxide gas.
# IMC = experiment: life-prolonging effect, IMC; format: in vivo, female mice of CDF1 strain; conditions: intraperitoneal tumor
# [4] = test system: cancer cells such as HL-60, MOLT-3, A-549, WI-38VA13, Hep G2, HCT 116, SW 480, WiDr, AGS and myeloma cells; experiment: cell growth suppressing, anticancer and apoptosis-inducing action to cancer cells; format: cell-based, human
# Sarcoma-180 = experiment: life-prolonging effect, subcutaneous Sarcoma-180; format: in vivo, female mice of ICR strain; conditions: about 80 mg/kg/day in drinking water, 40th day; control two out of eight
# Method: (2) Sixteen female mice of ICR strain of six weeks age (body weight: about 26 g) were used. Sarcoma-180 (5.5×10^6 cells/mouse) was subcutaneously injected into abdomen whereupon a control group (8 mice) and a group administered with the cyclopentenone (8 mice) were made.
# The cyclopentenone was diluted with tap water and freely given to the cyclopentenone-administered group to make the dose of the cyclopentenone about 80 mg/kg/day using a water-supplying bottle. Tap water was similarly given to the control group. In both groups, feed was freely given during the course of the experiment.
# EAC = experiment: life-prolonging effect, EAC; format: in vivo, female mice of DDY strain; conditions: intraperitoneal tumor
# [5] = test system: Lactobacillus rhamnosus (IFO 3532); experiment: antibacterial activity to hiochi lactobacteria, microorganism D; format: cell-based; conditions: five days; for Growth Turbidity (OD600): control 0.35
# Method: The testing microorganism was subjected to a stationary incubation for five days in an SI medium (Japan Brewery Association) containing 10% of ethanol to give a seed microorganism. The seed microorganism (0.1%) was added to 100 ml of 10% ethanol-containing SI medium to which the cyclopentenone was added in an amount of 0, 25, 50, 75 or 100 μg/ml (in terms of final concentration), then a stationary incubation was conducted for five days and the turbidity was measured. In measuring the turbidity, the value of OD600 was measured using an absorbance meter. A value of OD600 of the medium to which no testing microorganism was inoculated was deducted from the above value and this (growth turbidity) was used for the growth of the tested microorganism.
# The tested microorganisms were as follows. Thus, Lactobacillus fructivorans (IFO 13118) (testing microorganism A), Lactobacillus fructivorans (JCM 1198) (testing microorganism B) and Lactobacillus homohiochii (IFO 13120) (testing microorganism C) as true hiochi bacteria while Lactobacillus rhamnosus (IFO 3532) (testing microorganism D) was used as hiochi lactobacteria.
# HL-60 cells [6] = experiment: cancer cell differentiation (Wright-Giemsa stain); format: cell-based, human; conditions: control around 10%
# Method: (2) To HL-60 cells was added 10^-4 μg/ml of the cyclopentenone and an incubation by the same manner as in Example 15-(1) was conducted for three days. […] The result was that the differentiated cells were around 10% in the control where no cyclopentenone was added while, in the fractions to which the cyclopentenone was added, 50% or more cells were differentiated to monocyte- or to macrophage-like cells.
# The result was that the differentiated cells were around 10% in the control where no cyclopentenone was added while, in the fraction to which 0.005 μg/ml of the cyclopentenone was added, 25% or more cells were differentiated to mature bone marrow cells.
# [7] = test system: Legionella pneumophila (isolated from a washing of human bronchus); format: cell-based; conditions: 12 ppm, common logarithm
# [8] = 25 days
# Mouse leukemia P-388 = experiment: life-prolonging effect, leukemia P-388; conditions: 10 mg/kg/day i.p., five days
# [9] = test system: Salmonella typhimurium LT-2 (ATCC 27106); experiment: growth turbidity, microorganism (14); format: cell-based; conditions: 8 h, control 273
# Source text: as §1, §2
# [10] = test system: Saccharomyces cerevisiae ATCC 9763; experiment: antimicrobial activity to fungi; format: cell-based; conditions: high concentrations
smiles,measurement,setting,value
"O=C1C=CC(O)C1O (centres unmarked) [the cyclopentenone, 4,5-dihydroxy-2-cyclopenten-1-one]",Growth Turbidity,[1]; 25 μg/ml,145
same,Growth Turbidity,[1]; 50 μg/ml,9
same,Growth Turbidity,[1]; 100 μg/ml,0
same,Growth Turbidity,[1]; 200 μg/ml,0
same,antimicrobial activity,[2],antimicrobial activity at high concentrations
same,minimal effective concentration,"HL-60 cells [3]; HL-60, 20 h, read-out: final concentration at which viable cell numbers and cell viability decreased",≥ 10.6 µM
same,minimal effective concentration,"HL-60 cells [3]; HL-60, 20 hours, 35 μM solution added, read-out: final concentration at which apoptosis was induced (DNA molecular weight became small, cell shape changed)",3.5 µM
same,increase in life span,IMC,188%
same,mean survival days,IMC; control 10.8 days,20.3 days
same,apoptosis-inducing action to cancer cells,[4],apoptosis-inducing action
same,cell growth suppressing action and anticancer action,[4],cell growth suppressing action and anticancer action
same,numbers of living mice (out of eight),Sarcoma-180,seven
same,increase in life span,EAC,255%
same,mean survival days,EAC; control 15.8 days,40.3 days
same,Growth Turbidity (OD600),[5]; 25 μg/ml,0.04
same,Growth Turbidity (OD600),[5]; 50 μg/ml,0.01
same,Growth Turbidity (OD600),[5]; 75 μg/ml,0
same,MIC,"[5]; Lacticaseibacillus rhamnosus, IFO3532, 120 h, read-out: concentration completely inhibiting growth",75 µg/mL
same,cells differentiated to mature bone marrow cells,"HL-60 cells [6]; 0.005 μg/ml, three or six days",≥ 25%
same,cells differentiated to monocyte- or to macrophage-like cells,"HL-60 cells [6]; 10^-4 μg/ml, three days",≥ 50%
same,Numbers of Tested Microorganism Cells after Incubation,"[7]; 16 h, 0 ppm 6.9",5.7 log10 CFU/ml
same,Numbers of Tested Microorganism Cells after Incubation,"[7]; 96 h, 0 ppm 8.7",8.3 log10 CFU/ml
same,storage stability (amount of the cyclopentenone),[8]; 4° C. and -20° C.,almost stable
same,storage stability (amount of the cyclopentenone),[8]; 37° C.,some decrease
same,life-prolonging rate,Mouse leukemia P-388,306.1%
same,average surviving days,Mouse leukemia P-388; control 10.3 days,31.4 days
same,Growth Turbidity,[9]; 100 μg/ml,0
same,Growth Turbidity,[9]; 200 μg/ml,0
same,antimicrobial activity,[10],antimicrobial activity at high concentrations
